Measured values published in patent publication US20240351999A1, “PYRROLYLACYLPIPERIDYLAMINE COMPOUND AND USE THEREOF” (INSTITUTE OF MATERIA MEDICA ,CHINESE ACADEMY OF MEDICAL …, priority 2021, published 2024).
≈ marks a conversion by molar mass, not a printed value. Read-outs that look alike come from different tables or passages of the source.

How the values were obtained:
[1] = system: Staphylococcus aureus ATCC 29213; assay: In vitro antibacterial activity (MIC), microbroth dilution; assay type: cell-based; conditions: ATCC29213, 37° C., 18 h
[2] = system: Staphylococcus epidermidis ATCC 12228; assay: as above; assay type: cell-based; conditions: ATCC12228, 37° C., 18 h
[3] = system: Staphylococcus aureus ATCC 25923; assay: as above; assay type: cell-based; conditions: ATCC25923, 37° C., 18 h
[4] = system: Staphylococcus aureus ATCC 43300 (MRSA); assay: as above; assay type: cell-based; conditions: 18 h, read-out: MIC Staphylococcus aureus ATCC 43300 (MRSA)
[5] = system: Staphylococcus aureus MRSA 15-1; assay: as above; assay type: cell-based; conditions: 37° C., 18 h
[6] = system: Staphylococcus epidermidis MRSE 15-1; assay: as above; assay type: cell-based; conditions: 37° C., 18 h
[7] = system: Enterococcus faecalis ATCC 51575; assay: as above; assay type: cell-based; conditions: ATCC51575, 37° C., 18 h
[8] = system: Enterococcus faecium EFM 19-1; assay: as above; assay type: cell-based; conditions: EFM191, 37° C., 18 h
[9] = system: Escherichia coli ATCC 25922; assay: as above; assay type: cell-based; conditions: read-out: MIC Escherichia coli ATCC 25922
[10] = system: Escherichia coli ATCC 35218; assay: as above; assay type: cell-based; conditions: read-out: MIC Escherichia coli ATCC 35218
[11] = system: Escherichia coli ECO+ 15-1; assay: as above; assay type: cell-based; conditions: 18 h, read-out: MIC Escherichia coli ECO+ 15-1
[12] = system: Acinetobacter baumannii ATCC 19606; assay: as above; assay type: cell-based; conditions: read-out: MIC Acinetobacter baumannii ATCC 19606
[13] = system: Pseudomonas aeruginosa ATCC 27853; assay: as above; assay type: cell-based; conditions: read-out: MIC Pseudomonas aeruginosa ATCC 27853
[14] = system: Klebsiella pneumoniae KPN-15-1; assay: as above; assay type: cell-based; conditions: read-out: MIC Klebsiella pneumoniae KPN-15-1
[15] = system: Clostridium difficile ATCC 9689; assay: as above; assay type: cell-based
[16] = system: Mycobacterium tuberculosis; assay: Activity against Mycobacterium tuberculosis (MIC); assay type: cell-based; conditions: read-out: Inhibitory activity (MIC) against Mycobacterium tuberculosis
[17] = system: Escherichia coli ATCC25922; conditions: prior art value; cited from earlier work
[18] = system: Staphylococcus aureus ATCC 29213; assay: In vitro induced drug resistance, 20 generations at sub-MIC; assay type: cell-based; conditions: ATCC29213, read-out: MIC value after passage for 20 generations
Experimental: Test method: MIC values of a compound 1 and a control compound DS2969 against Staphylococcus aureus ATCC 29213 were determined by using a microbroth dilution method recommended by operating procedures for antibacterial susceptibility testing of the Clinical and Laboratory Standards Institute (CLSI).
After testing the MIC values, sub-MIC concentrations (1/2 MIC) of bacteria were diluted, and the concentration of the obtained bacterial solution was adjusted to 105 CFU/mL for a next round of MIC value testing. After 24 hours of incubation, bacterial suspensions were prepared by using bacterial suspensions at sub-MIC concentrations of drugs (1/2 MIC), and another MIC testing was performed. This process was repeated for 20 times, and the MIC value for each test was recorded.
The MIC values of the compound 1 and DS2969 inducing Staphylococcus aureus ATCC29213 for 20 generations were recorded, with the number of generations of bacteria induced as an abscissa and the MIC values as an ordinate (as shown in FIG. 1).

[19] = system: Staphylococcus aureus (MRSA, ATCC 43300); assay: Antibacterial activity in mice, sepsis model; assay type: in vivo, ICR mice; conditions: MRSA ATCC 43300 sepsis model
Experimental: (§1) Experimental animals: Beijing Vital River Laboratory Animal Technology Co., Ltd., ICR mice, with a uniform body weight of 20-22 g, and half male and half female.
Model: Sepsis model infected by Staphylococcus aureus (MRSA, ATCC 43300)
Modeling method: mice were infected with […] (diluted with a 5% sterile yeast solution) Staphylococcus aureus (MRSA, ATCC 43300) such that sepsis models of mice were formed (0.5 mL of a bacterial solution was injected intraperitoneally into each mouse).
Experimental scheme: a compound 1 and a positive drug were first dissolved in DMSO, and then diluted with other solvents, wherein a solvent ratio was saline:Tween 80:DMSO=9:0.5:0.5.

[20] = Pharmacokinetic test in mice; assay type: in vivo; conditions: both sexes, ICR, mouse, po, 150 mg/kg intragastric administration; for half-life: read-out: t½z (half-life period) (converted)
Experimental: as §1
Experimental scheme: a compound 1 was administered at a dose of 150 mg/kg (Solvents were as follows: saline:Tween 80:DMSO=9:0.5:0.5) by intragastric administration, and samples were taken by orbital blood sampling or a mode of sampling blood by enucleating eyeballs at 10 min, 20 min, 30 min, 1 h, 3 h, 5 h, 8 h, 24 h, 36 h, and 48 h after administration, plasma concentrations were determined by UPLC, a drug concentration-time curve was plotted, and key pharmacokinetic parameters were calculated.

[21] = Acute toxicity test in mice; assay type: in vivo
From the text: as §1
In a tail vein administration group, there were 10 mice in each group, with half male and half female. In an intragastric administration group and an intraperitoneal administration group, there were four mice in each group, with half male and half female.

[22] = Clostridioides difficile, ATCC9689; read-out: MIC Clostridium difficile ATCC 9689

SMILES | MIC [1] | MIC [2] | MIC [3] | MIC [5] | MIC [6] | MIC [7] | MIC [8] | MIC ([9]; ATCC25922, 37° C., 18 h) | MIC ([10]; ATCC35218, 37° C., 18 h) | MIC ([11]; 37° C.) | MIC ([12]; ATCC19606, 37° C., 18 h) | MIC ([13]; ATCC27853, 37° C., 18 h) | MIC ([14]; KPN151, 37° C., 18 h) | further results
CO[C@H]1CN(c2ncc(C(C)(C)O)s2)CC[C@H]1NC(=O)c1[nH]c(C)c(Cl)c1Cl [Compound 6, 3,4-Dichloro-N-((3S,4R)-1-(5-(2-hydroxypropan-2-yl)thiazol-2-yl)-3-methoxypiperidin-4-yl)-5-methyl-1H-pyrrole-2-carboxamide] | 0.25 µg/mL (≈ 0.559 µM) | 0.25 µg/mL (≈ 0.559 µM) |  |  |  |  |  |  |  |  |  |  |  | 
CO[C@H]1CN(c2nnc(C(C)(C)O)s2)CC[C@H]1NC(=O)c1[nH]c(C)c(Cl)c1Cl [Compound 2, 3,4-Dichloro-N-((3S,4R)-1-(5-(2-hydroxypropan-2-yl)-1,3,4-thiadiazol-2-yl)-3-methoxypiperidin-4-yl)-5-methyl-1H-pyrrole-2-carboxamide] | 0.008 µg/mL (≈ 0.0178 µM) | ≤ 0.03 µg/mL | ≤ 0.03 µg/mL | ≤ 0.03 µg/mL | ≤ 0.03 µg/mL | ≤ 0.03 µg/mL | ≤ 0.03 µg/mL | 2 µg/mL (≈ 4.46 µM) | 1 µg/mL (≈ 2.23 µM) | 16 µg/mL (≈ 35.7 µM) | 16 µg/mL (≈ 35.7 µM) | 8 µg/mL (≈ 17.8 µM) | 16 µg/mL (≈ 35.7 µM) | MIC ([4]; 37° C.): ≤ 0.03 µg/mL; MIC [15, 22]: 0.25 µg/mL (≈ 0.558 µM); Activity against Clostridium difficile compared with controls ([15]; vs DS2969 and vancomycin): stronger than those of DS2969 and the positive control drug vancomycin; MIC [16]: 0.595 µg/mL (≈ 1.33 µM)
CO[C@H]1CN(c2ccc(C3(O)CCCC3)nn2)CC[C@H]1NC(=O)c1[nH]c(C)c(Cl)c1Cl [Compound 7, 3,4-Dichloro-N-((3S,4R)-1-(6-(1-hydroxycyclopentyl)pyridazin-3-yl)-3-methoxypiperidin-4-yl)-5-methyl-1H-pyrrole-2-carboxamide] | ≤ 0.03 µg/mL | 0.125 µg/mL (≈ 0.267 µM) |  |  |  |  |  | 8 µg/mL (≈ 17.1 µM) |  |  |  |  |  | 
CN[C@H](CC(C)C)C(=O)N[C@H]1C(=O)N[C@@H](CC(N)=O)C(=O)N[C@H]2C(=O)N[C@H]3C(=O)N[C@H](C(=O)N[C@H](C(=O)O)c4cc(O)cc(O)c4-c4cc3ccc4O)[C@H](O)c3ccc(c(Cl)c3)Oc3cc2cc(c3O[C@@H]2O[C@H](CO)[C@@H](O)[C@H](O)[C@H]2O[C@H]2C[C@](C)(N)[C@H](O)[C@H](C)O2)Oc2ccc(cc2Cl)[C@H]1O [Vancomycin] |  |  |  |  |  |  |  |  |  |  |  |  |  | MIC ([9]; ATCC25922, 18 h): > 64 µg/mL; MIC ([10]; ATCC35218, 18 h): > 64 µg/mL; MIC [11]: > 64 µg/mL; MIC ([12]; ATCC19606, 18 h): > 64 µg/mL; MIC ([13]; ATCC27853, 18 h): > 64 µg/mL; MIC ([14]; KPN151, 18 h): > 64 µg/mL; MIC ([15]; Clostridioides difficile, ATCC9689, read-out: MIC Clostridium difficile ATCC 9689): 2 µg/mL (≈ 1.38 µM)
CO[C@H]1CN(c2cnc(C(C)(C)O)cn2)CC[C@H]1NC(=O)c1[nH]c(C)c(Cl)c1Cl [Compound 4, 3,4-Dichloro-N-((3S,4R)-1-(5-(2-hydroxypropan-2-yl)pyrazin-2-yl)-3-methoxypiperidin-4-yl)-5-methyl-1H-pyrrole-2-carboxamide] | 0.25 µg/mL (≈ 0.565 µM) | 0.5 µg/mL (≈ 1.13 µM) |  |  |  |  |  |  |  |  |  |  |  | 
C[C@H]1COc2c(N3CCN(C)CC3)c(F)cc3c(=O)c(C(=O)O)cn1c23 [Levofloxacin, reference compound] | 0.25 µg/mL (≈ 0.692 µM) | 0.125 µg/mL (≈ 0.346 µM) | 0.25 µg/mL (≈ 0.692 µM) | 16 µg/mL (≈ 44.3 µM) | 4 µg/mL (≈ 11.1 µM) | 0.5 µg/mL (≈ 1.38 µM) | 0.5 µg/mL (≈ 1.38 µM) | ≤ 0.06 µg/mL | ≤ 0.06 µg/mL | 8 µg/mL (≈ 22.1 µM) | 0.25 µg/mL (≈ 0.692 µM) | 2 µg/mL (≈ 5.53 µM) | 0.5 µg/mL (≈ 1.38 µM) | MIC ([4]; 37° C.): 0.25 µg/mL (≈ 0.692 µM)
CO[C@H]1CN(c2ccc(C3(O)CCCCC3)nn2)CC[C@H]1NC(=O)c1[nH]c(C)c(Cl)c1Cl [Compound 8, 3,4-Dichloro-N-((3S,4R)-1-(6-(1-hydroxycyclohexyl)pyridazin-3-yl)-3-methoxypiperidin-4-yl)-5-methyl-1H-pyrrole-2-carboxamide] | ≤ 0.03 µg/mL | ≤ 0.03 µg/mL |  |  |  |  |  | 16 µg/mL (≈ 33.2 µM) |  |  |  |  |  | 
COC[C@H](C)NC(=O)c1nc(N2CC[C@@H](NC(=O)c3[nH]c(C)c(Cl)c3Cl)[C@@H](OC)C2)sc1C(=O)O [AZD5099] | 0.03 µg/mL (≈ 0.0547 µM) |  |  |  |  |  |  | 32 µg/mL (≈ 58.3 µM) | 32 µg/mL (≈ 58.3 µM) | > 64 µg/mL | > 64 µg/mL | > 64 µg/mL | > 64 µg/mL | MIC Escherichia coli ATCC25922 (background) [17]: 32 µg/mL (≈ 58.3 µM)
CO[C@H]1CN(c2ccc(C(C)(C)O)nn2)CC[C@H]1NC(=O)c1[nH]c(C)c(Cl)c1Cl [Compound 1, 3,4-dichloro-N-{(3S,4R)-1-[6-(2-hydroxypropan-2-yl)pyridazin-3-yl]-3-methoxypiperidin-4-yl}-5-methyl-IH-pyrrole-2-carboxamide] | 0.008 µg/mL (≈ 0.0181 µM) | ≤ 0.03 µg/mL | ≤ 0.03 µg/mL | ≤ 0.03 µg/mL | ≤ 0.03 µg/mL | ≤ 0.03 µg/mL | ≤ 0.03 µg/mL | 1 µg/mL (≈ 2.26 µM) | 1 µg/mL (≈ 2.26 µM) | 8 µg/mL (≈ 18.1 µM) | 8 µg/mL (≈ 18.1 µM) | 4 µg/mL (≈ 9.04 µM) | 8 µg/mL (≈ 18.1 µM) | MIC [4]: ≤ 0.03 µg/mL; MIC [15, 22]: 0.25 µg/mL (≈ 0.565 µM); Activity against Clostridium difficile compared with controls ([15]; vs DS2969 and vancomycin): stronger than those of DS2969 and the positive control drug vancomycin; MIC [16]: 0.593 µg/mL (≈ 1.34 µM); MIC [18]: < 1 µg/mL; In vivo antibacterial activity (survival of mice) ([19]; 50 mg/kg, 1 h after modeling, observed 14 days): significant in vivo antibacterial activity and shows better antibacterial activity than DS2969; ED50 ([19]; Staphylococcus aureus, po, intragastric administration at lower dose): 5 mg/kg; bioavailability ([20]; in vivo, read-out: F (bioavailability)): 86%; half-life ([20]; in vivo): 9.2 h; AUC(0-inf) ([20]; plasma): 933 µg·h/mL; Cmax ([20]; plasma): 49400 ng/mL; Tmax ([20]; plasma): 1 h; AUC(0-t) ([20]; plasma, read-out: AUC (0-48)): 916 µg·h/mL; MRT last ([20]; plasma, read-out: MRT (0-48)): 16.1 h; MRT inf ([20]; plasma, read-out: MRT (0-∞)): 16.9 h; half-life ([20]; plasma): 9.21 h; Survival rate on day 14 ([21]; 95 mg/kg by a tail vein): 60%; Survival rate on day 14 ([21]; 200 mg/kg intraperitoneally): 100%; Survival rate on day 14 ([21]; 800 mg/kg by intragastric administration): 75%
